Reference: the supplement of paper PMC10307832

Experiments:
Test in all cases: relative viability (nuclei count vs DMSO), 5 days (fraction); higher = more cells survive
[1] = compound: CN1C=C(C2=CC=CC=C21)/C=C\3/C4=C(C=CC=N4)NC3=O + Nc1ncn([C@H]2C[C@H](O)[C@@H](CO)O2)c(=O)n1 [Decitabine] (partner 2 µM)
Summary of the method: (§1)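 Relative viability divides the nuclei count in treated wells by that in vehicle wells. Lung cancer cell lines were seeded in 1536-well plates, dosed by pin tool the next day, and fixed and stained after 5 days in one step with final 0.05% Triton X-100, 1% formaldehyde and 1 ug/ml Hoechst. Dosing was a single drug or a fixed anchor-drug dose plus five library-drug doses (not always all listed) in √10 steps, and values are medians of duplicate plates imaged at 4×.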

Trametinib + Phenformin = compound: CC(=O)Nc1cccc(-n2c(=O)n(C3CC3)c(=O)c3c(Nc4ccc(I)cc4F)n(C)c(=O)c(C)c32)c1 [Trametinib] + N=C(N)NC(=N)NCCc1ccccc1 [Phenformin] (partner 250 µM)
Summary of the method: as §1

[2] = compound: CN1C=C(C2=CC=CC=C21)/C=C\3/C4=C(C=CC=N4)NC3=O + CCNC(=O)c1noc(-c2cc(C(C)C)c(O)cc2O)c1-c1ccc(CN2CCOCC2)cc1 [Luminespib] (partner 0.01 µM)
Summary of the method: as §1

[3] = compound: CN1C=C(C2=CC=CC=C21)/C=C\3/C4=C(C=CC=N4)NC3=O + O=C(c1cc(Cc2n[nH]c(=O)c3ccccc23)ccc1F)N1CCN(C(=O)C2CC2)CC1 [Olaparib] (partner 8 µM)
Summary of the method: as §1

Row | Cell Line | relative viability ([1]; first compound 0.02 µM) | relative viability ([1]; first compound 0.06325 µM) | relative viability ([1]; first compound 0.2 µM) | relative viability ([1]; first compound 0.6325 µM) | relative viability ([1]; first compound 2 µM) | relative viability (Trametinib + Phenformin; first compound 0.0025 µM) | relative viability (Trametinib + Phenformin; first compound 0.007906 µM) | relative viability (Trametinib + Phenformin; first compound 0.025 µM) | relative viability (Trametinib + Phenformin; first compound 0.07906 µM) | relative viability (Trametinib + Phenformin; first compound 0.25 µM) | relative viability ([2]; first compound 0.02 µM) | relative viability ([2]; first compound 0.06325 µM) | relative viability ([2]; first compound 0.2 µM) | relative viability ([2]; first compound 0.6325 µM) | relative viability ([2]; first compound 2 µM) | relative viability ([3]; first compound 0.02 µM) | relative viability ([3]; first compound 0.06325 µM) | relative viability ([3]; first compound 0.2 µM) | relative viability ([3]; first compound 0.6325 µM) | relative viability ([3]; first compound 2 µM)
1 | LU99A | 0.855 | 0.877 | 0.902 | 0.848 | 0.842 | 0.895 | 0.812 | 0.642 | 0.588 | 0.455 | 0.265 | 0.255 | 0.275 | 0.355 | 0.28 | 0.253 | 0.24 | 0.274 | 0.21 | 0.278
2 | LXF-289 | 0.403 | 0.338 | 0.425 | 0.396 | 0.381 | 0.503 | 0.451 | 0.444 | 0.422 | 0.263 | 0.668 | 0.662 | 0.741 | 0.69 | 0.785 | 1.09 | 0.998 | 1.19 | 1.07 | 1.1
3 | NCI-H23 | 0.321 | 0.295 | 0.306 | 0.336 | 0.347 | 0.782 | 0.738 | 0.312 | 0.583 | 0.303 | 0.232 | 0.178 |  | 0.194 | 0.222 | 0.253 | 0.357 | 0.218 | 0.293 | 0.262
4 | NCI-H322M | 0.683 | 0.708 | 0.649 | 0.648 | 0.686 | 0.679 | 0.577 | 0.525 | 0.501 | 0.43 | 0.812 | 0.76 | 0.798 | 0.946 | 0.929 | 0.766 | 0.717 | 0.718 | 0.961 | 0.923
5 | NCI-H358 | 0.233 | 0.186 | 0.195 | 0.204 | 0.246 | 0.201 | 0.189 | 0.146 | 0.124 | 0.121 | 0.397 | 0.377 | 0.403 | 0.309 | 0.407 | 0.607 | 0.534 | 0.564 | 0.565 | 0.507
6 | NCI-H441 | 0.225 | 0.247 | 0.23 | 0.229 | 0.497 | 0.744 | 0.836 | 0.501 | 0.561 | 0.252 | 0.341 | 0.341 | 0.296 | 0.513 | 0.36 | 0.52 | 0.47 | 0.611 | 0.405 | 0.588
7 | NCI-H460 | 0.487 | 0.44 | 0.414 | 0.445 | 0.483 | 0.502 | 0.332 | 0.237 | 0.135 | 0.041 | 0.0416 | 0.0387 | 0.0352 | 0.0268 | 0.0415 | 0.463 | 0.417 | 0.491 | 0.435 | 0.367
8 | NCI-H520 | 0.46 | 0.492 | 0.536 | 0.473 | 0.52 | 0.543 | 0.666 | 0.392 | 0.608 | 0.199 | 0.204 | 0.24 | 0.217 | 0.211 | 0.229 | 0.298 | 0.369 | 0.312 | 0.342 | 0.363
9 | NCI-H522 | 0.598 | 0.644 | 0.716 | 0.637 | 0.695 | 0.575 | 0.657 | 0.506 | 0.574 | 0.434 | 1.32 | 0.937 | 1.02 | 1.18 | 1.12 | 0.615 | 0.685 | 0.679 | 0.556 | 0.691
10 | NCI-H596 | 1.03 | 1.06 | 0.958 | 1.88 | 1.81 | 0.713 | 0.704 | 0.485 | 0.622 | 0.411 | 1 | 1.01 | 0.858 | 0.93 | 0.866 | 0.545 | 0.744 | 0.648 | 0.558 | 0.554
11 | NCI-H647 | 0.391 | 0.314 | 0.384 | 0.327 | 0.349 | 0.554 | 0.561 | 0.507 | 0.333 | 0.148 | 0.177 | 0.124 | 0.192 | 0.128 | 0.324 | 0.262 | 0.426 | 0.446 | 0.395 | 0.458
12 | NCI-H650 | 0.316 | 0.338 |  | 0.293 | 0.188 | 0.532 | 0.52 | 0.501 | 0.426 | 0.403 | 0.573 | 0.775 |  | 0.757 | 0.889 | 0.464 | 0.418 |  | 0.434 | 0.411
13 | NCI-H661 | 0.594 | 0.562 | 0.496 | 0.564 | 0.555 | 0.298 | 0.289 | 0.257 | 0.28 | 0.246 | 1.06 | 0.875 | 0.946 | 0.973 | 0.917 | 0.825 | 0.722 | 0.791 | 0.89 | 0.822
14 | NCI-H727 | 0.935 | 0.886 | 0.669 | 0.979 | 0.829 | 0.32 | 0.359 | 0.406 | 0.257 | 0.264 | 0.365 | 0.329 | 0.394 | 0.4 | 0.271 | 0.76 | 0.729 | 0.67 | 0.688 | 0.635
15 | NCI-H838 | 0.431 | 0.447 | 0.446 | 0.433 | 0.449 | 0.515 | 0.509 | 0.281 | 0.369 | 0.351 | 0.314 | 0.336 | 0.345 | 0.269 | 0.325 | 0.695 | 0.604 | 0.653 | 0.765 | 0.67
